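Method: 48-hour compound exposure of cells in 96-well plates, five concentrations, linear interpolation of endpoints. TGI: total growth inhibition.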
Tested on: P388 leukemia
Experiment: NCI tumour cell line growth inhibition, 48 h

Q: With `O=C[C@@H](CO)O[C@H](C=O)n1cnc2c(=O)[nH]cnc21` as the molecule, how does the TGI read?
A: 374 µM

Source: PubChem BioAssay (NCI)
